Measurements from patent US4762848A, “1,3-thiazoles and their use as immunomodulators” (Hoechst Aktiengesellschaft, priority 1985, dated 1988).

What was measured:
Candida albicans = conditions: ketoconazole 70 mg/kg (d-1-6, p.o.) alone
Method: Female Balb/c mice (15/group) were infected intravenously with Candida albicans (10^6 cfu/mouse) (day 0). Three groups were formed: group 1 was treated with physiological saline solution, and group 2 received 70 mg/kg ketoconazole orally on 7 consecutive days (days -1-6). Group 3 received 10 intraperitoneal injections of 2 mg/kg test substance on days 3-30 (every 3rd day) in addition to ketoconazole. The number of animals which died was recorded each day, and the time at which 50% of the animals in each group had died (T50) was determined.

DTH reaction (SRBC) = test: Stimulation of the DTH reaction, relative to the compound from Example 7; format: in vivo, NMRI mice; conditions: 1 × i.p. day 0, relative to Example 7 = 100%
Method: Either 10^6 or 10^9 red blood cells from sheep were administered intravenously to each animal in groups of 5 female NMRI mice weighing 18-20 g. Sheep erythrocytes are regarded in immunology as a standard test substance (antigen) for the induction of cellular and humoral immune reactions. In particular, this test provides information about the functioning of the T-cell-dependent component (T-helper cells) of the immune system. The test substance obtained as in exemplary embodiment 7 ([2-(3-carboxy-1-propylthio)-4 -methyl-1,3-thiazol-5-yl]acetic acid) was administered intraperitoneally and perorally, respectively, […], each animal received 2×10^8 sheep erythrocytes injected into the underside of the foot and, 24 hours later, the swelling of the foot was measured. The foot swelling is induced by a skin reaction of the delayed type (delayed type hypersensitivity, DTH) and is, as is known to the expert, a measure of the cellular immune response (Collins, F. M. and Mackaness, G. B., J. Immunol. 101, 830-845, 1968). The results compiled in Table 1 illustraste that there is an increase in the cellular immune response owing to the administration of the subst nce obtained according to the invention, for example after imnunization with 10^6 or 10^9 sheep erythrocytes. An optimum stimulation can be observed in this experimental design on administration of 20-40 mg/kg test substance.
NMRI mice were treated with the substances according to the invention as described in experiment 1.
The DTH reaction was checked as a test to determine the immunostimulation.
It can be seen from the table that the DTH reaction in the animals pretreated with the test substances is more pronounced than in the corresponding control animals.

macrophages [1] = test: Stimulation of macrophage activity (chemiluminescence), relative to the compound from Example 7; format: in vivo, NMRI mice; conditions: 100 mg/kg, 1 × i.p. day 0; relative to Example 7 = 100%
Method: (§1) This entailed investigation of the effect of the test substance obtained as in exemplary embodiment 7 on the stimulation of peritoneal macrophages in 6-8 week old NMRI mice. Female mice received the test substance in parenteral or oral doses of 25 mg/kg, 50 mg/kg, 100 mg/kg and 200 mg/kg. Buffered saline solution was administered to a control group. The mice were sacrificed three days after the injections, and the peritoneal macrophages of the animals were examined for their state of activation. The secretion of the lysosomal enzymes (β-galactosidase, β-glucuronidase and N-acetyl-β-D-glucosaminidase) was determined as one measure of macrophage activation. […] The level of oxidative metabolism in macrophages is taken as another measure of their state of activation. This activity is measured with the assistance of a biolumate by determination of the chemiluminescence.
(§2) For this purpose, either 3×10^6 macrophages were cultured with 1 ml of TC 199 culture medium in Petri dishes of diameter 30 mm or 10^6 macrophages were cultured with 100 μl of medium in round-bottomed polyethylene tubes (for determination of the chemiluminescence), with 5% CO2 and at 37° C.
(§3) After incubation for one hour, the cultures were washed to remove floating cells. The chemiluminescence (tube culture) was then determined directly, whereas the Petri dishes were incubated for a further 24 hours at 37° C. and then the enzyme and pinocytosis activities in the cultures were determined.
(§4) NMRI mice were treated with the compounds according to the invention as described in experiment 2.
(§5) The macrophage function (chemiluminescence and enzyme activity) was checked as a test to determine the immunostimulation.
(§6) It can be seen from the table that in comparison with macrophages from untreated animals, the chemiluminescence reaction of these cells was also greatly stimulated by all the test substances, and their content of lysosomal enzymes was markedly raised.

macrophages [2] = test: Stimulation of macrophage activity (exocytosis / lysosomal enzyme activity), relative to the compound from Example 7; format: in vivo, NMRI mice; conditions: 100 mg/kg, 1 × i.p. day 0; relative to Example 7 = 100%
Method: as §1, §2, §3, §4, §5, §6

CC(=O)N1CCN(c2ccc(OCC3COC(Cn4ccnc4)(c4ccc(Cl)cc4Cl)O3)cc2)CC1 (centres unmarked) [Ketoconazole, ketoconazole]
T50 (time at which 50% of the animals had died) (Candida albicans): 18 days

O=C(O)CSc1nnc(SCC(=O)O)s1 [Example 25, 2,5-Dicarboxymethylthio-1,3,4-thiadiazole]
DTH reaction (SRBC), relative activity (DTH reaction (SRBC); 100 mg/kg): 115%
Macrophage activity: Chemiluminescence, relative activity (macrophages [1]): 26%
Macrophage activity: Exocytosis, relative activity (macrophages [2]): 186%

Cc1nc(SCCCC(=O)O)sc1C(=O)O [Example 39]
DTH reaction (SRBC), relative activity (DTH reaction (SRBC); 100 mg/kg): 210%
Macrophage activity: Chemiluminescence, relative activity (macrophages [1]): 35%
Macrophage activity: Exocytosis, relative activity (macrophages [2]): 148%

O=C(O)CSc1scnc1C(=O)O [Example 15, 5-Carboxymethylthio-1,3-thiazol-4-ylcarboxylic acid]
Macrophage activity: Chemiluminescence, relative activity (macrophages [1]): 49%
Macrophage activity: Exocytosis, relative activity (macrophages [2]): 172%

CSc1nc(C)c(CC(=O)O)s1 [Example 1, 2-Methylmercapto-4-methyl-1,3-thiazol-5-ylacetic acid]
Macrophage activity: Chemiluminescence, relative activity (macrophages [1]): 29%
Macrophage activity: Exocytosis, relative activity (macrophages [2]): 124%

O=C(O)CCCSc1nnc(SCCCC(=O)O)s1 [Example 27, 2,5-Di(3-carboxy-1-propylthio)-1,3,4-thiadiazole]
DTH reaction (SRBC), relative activity (DTH reaction (SRBC); 20 mg/kg): 144%
Macrophage activity: Chemiluminescence, relative activity (macrophages [1]): 22%
Macrophage activity: Exocytosis, relative activity (macrophages [2]): 258%

O=C(O)CSc1nc(O)nn1-c1ccccc1 [Example 24, 1-Phenyl-3-hydroxy-1,2,4-triazol-5-ylmercaptoacetic acid]
DTH reaction (SRBC), relative activity (DTH reaction (SRBC); 100 mg/kg): 115%
Macrophage activity: Chemiluminescence, relative activity (macrophages [1]): 57%
Macrophage activity: Exocytosis, relative activity (macrophages [2]): 218%
